IC50 data for 17 compounds are collected here from patent US12421225B2, “Heteroaromatic amide derivative and medicament containing the same” (KAKEN PHARMACEUTICAL CO., LTD., priority 2018, dated 2025).

One data set concerns the target human Nav1.7 (Homo sapiens (Human), UniProt Q15858). Description: Human Nav1.7 inhibitory activity evaluation (automated patch clamp QPatch16X, HEK293A cells stably expressing human Nav1.7 and human Navβ1). In kind it is cell-based. The note with it: HEK293A cells stably expressing human Nav1.7 and human Navβ1, automated patch clamp QPatch16X. The procedure, abridged:
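IC50 calculated from the concentration-response of inward current evoked by the second −10 mV, 50 ms depolarisation, which follows a 15 s conditioning step at roughly 30-40% inactivation and a 100 ms −120 mV interval. Cells: HEK293A expressing human Nav1.7/Navβ1, automated patch clamp, room temperature, 0.1% DMSO final.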
On the technique in general: In patch-clamp work, channel activity is measured electrically.

For the next data set, the target named is human Nav1.5 (Homo sapiens (Human), UniProt Q14524). The data set can be described thus: Human Nav1.5 inhibitory activity evaluation (automated patch clamp QPatch16X, HEK293 cells stably expressing human Nav1.5). In kind it is cell-based. On the procedure: Test Example 2: Human Nav1.5 Inhibitory Activity Evaluation
A cell line in which human Nav1.5 was stably expressed in HEK293 cells was used. DMEM supplemeted with 15% fetal bovine serum, 500 μg/ml geneticin, 100 units/ml penicillin, 100 μg/ml streptomycin, 20 mM HEPES was used as culture medium under the conditions of 37° C. and 5% CO2 in T175 flasks to carry out culturing. When 60-80% confluence was reached, a cell suspension of about 0.5-5.0×10^6 cells/mL was prepared. The amount of current through human Nav1.5 was recorded using a fully automatic patch clamp device QPatch16X at room temperature. As the extracellular solution, 145 mM NaCl, 4 mM KCl, 1 mM MgCl2, 2 mM CaCl2, 10 mM Glucose, and 10 mM HEPES at pH 7.4 was used. As the intracellular solution, 135 mM CsF, ⅕ mM EGTA/CsOH, 10 mM HEPES, and 10 mM NaCl at pH 7.3 was used. The test compounds were dissolved in DMSO and diluted with the extracellular solution to attend the DMSO concentration of 0.1% at the time of assay.
The current response was obtained at a sampling frequency of 25 kHz, and noise was removed with a 3 kHz low-pass filter. The holding potential was −80 mV. Correction of the leakage current was carried out by applying a step pulse of −100 mV before the test pulse. In order to investigate human Nav1.5 inhibitory effect of the test compound, test pulses imitating the action potential of cardiomyocytes were continuously given 20 times. The test pulses were given before and after the test compound addition.
The inhibitory activity of the test compound was determined based on the amount of inward current generated by the 20th depolarization pulse, and the 50% inhibitory concentration (IC50) was calculated from the concentration-response curve.

Setting [1] is: HEK293 cells stably expressing human Nav1.5, automated patch clamp QPatch16X.
Setting [2] is: human Nav1.5, automated patch clamp.

human Nav1.7, sequence (Q15858 whole entry): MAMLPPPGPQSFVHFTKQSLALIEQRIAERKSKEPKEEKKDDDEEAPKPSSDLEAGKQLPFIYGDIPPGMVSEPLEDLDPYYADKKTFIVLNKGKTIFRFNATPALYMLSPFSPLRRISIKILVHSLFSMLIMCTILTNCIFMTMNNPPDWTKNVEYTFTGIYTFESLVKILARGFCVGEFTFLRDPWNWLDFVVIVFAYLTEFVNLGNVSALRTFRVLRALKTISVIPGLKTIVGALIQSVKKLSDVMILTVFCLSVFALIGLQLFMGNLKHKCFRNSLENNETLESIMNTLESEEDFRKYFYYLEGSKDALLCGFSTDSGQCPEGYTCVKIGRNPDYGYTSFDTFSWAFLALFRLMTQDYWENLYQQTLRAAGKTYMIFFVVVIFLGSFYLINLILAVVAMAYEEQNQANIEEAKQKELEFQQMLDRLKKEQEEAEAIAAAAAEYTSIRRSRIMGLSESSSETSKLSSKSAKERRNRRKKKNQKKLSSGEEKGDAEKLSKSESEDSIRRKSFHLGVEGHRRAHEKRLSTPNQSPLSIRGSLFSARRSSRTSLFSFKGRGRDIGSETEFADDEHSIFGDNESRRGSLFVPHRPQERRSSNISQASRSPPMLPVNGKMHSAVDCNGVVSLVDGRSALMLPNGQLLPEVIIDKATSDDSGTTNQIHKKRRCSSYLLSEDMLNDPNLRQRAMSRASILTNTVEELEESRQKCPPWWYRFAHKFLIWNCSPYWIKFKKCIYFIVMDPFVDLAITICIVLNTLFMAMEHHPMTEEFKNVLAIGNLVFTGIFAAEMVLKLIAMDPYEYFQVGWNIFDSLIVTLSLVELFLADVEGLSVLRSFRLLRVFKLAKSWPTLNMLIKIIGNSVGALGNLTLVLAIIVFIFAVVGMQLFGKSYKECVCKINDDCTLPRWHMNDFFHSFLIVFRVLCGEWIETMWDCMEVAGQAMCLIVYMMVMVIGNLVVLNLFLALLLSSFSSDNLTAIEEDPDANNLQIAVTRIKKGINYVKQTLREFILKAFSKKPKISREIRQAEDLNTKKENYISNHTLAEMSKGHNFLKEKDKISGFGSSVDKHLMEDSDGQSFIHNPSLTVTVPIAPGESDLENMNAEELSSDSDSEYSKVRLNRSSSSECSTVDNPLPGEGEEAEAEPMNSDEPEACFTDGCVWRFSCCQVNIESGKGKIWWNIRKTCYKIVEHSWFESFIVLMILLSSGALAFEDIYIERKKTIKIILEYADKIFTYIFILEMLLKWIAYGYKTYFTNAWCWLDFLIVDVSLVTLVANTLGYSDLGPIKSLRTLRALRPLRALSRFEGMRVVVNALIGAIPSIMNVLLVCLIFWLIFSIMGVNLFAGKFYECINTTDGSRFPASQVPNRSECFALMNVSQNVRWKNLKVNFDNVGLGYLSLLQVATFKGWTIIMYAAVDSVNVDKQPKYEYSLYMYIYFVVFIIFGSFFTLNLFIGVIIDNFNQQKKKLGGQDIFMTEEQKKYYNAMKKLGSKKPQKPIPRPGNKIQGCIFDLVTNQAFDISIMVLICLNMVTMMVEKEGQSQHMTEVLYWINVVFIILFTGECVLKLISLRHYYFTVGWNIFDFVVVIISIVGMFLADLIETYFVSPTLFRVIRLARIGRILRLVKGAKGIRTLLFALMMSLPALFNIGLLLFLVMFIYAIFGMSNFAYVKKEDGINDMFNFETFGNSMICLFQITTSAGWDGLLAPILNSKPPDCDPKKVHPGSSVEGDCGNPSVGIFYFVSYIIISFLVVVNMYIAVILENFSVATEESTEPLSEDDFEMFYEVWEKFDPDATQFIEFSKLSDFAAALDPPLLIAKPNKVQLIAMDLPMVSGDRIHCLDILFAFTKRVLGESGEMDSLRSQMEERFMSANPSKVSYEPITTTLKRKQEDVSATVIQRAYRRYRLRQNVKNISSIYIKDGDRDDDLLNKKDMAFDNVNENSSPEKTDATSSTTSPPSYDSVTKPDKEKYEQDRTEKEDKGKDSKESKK
human Nav1.7, sequence (Q07699 19-218 partner): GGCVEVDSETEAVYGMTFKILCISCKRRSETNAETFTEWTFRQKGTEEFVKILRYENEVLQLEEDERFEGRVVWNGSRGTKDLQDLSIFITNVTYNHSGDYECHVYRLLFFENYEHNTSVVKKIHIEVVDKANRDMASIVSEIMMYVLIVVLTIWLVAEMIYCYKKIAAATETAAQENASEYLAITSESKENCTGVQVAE
human Nav1.5, sequence (Q14524 whole entry): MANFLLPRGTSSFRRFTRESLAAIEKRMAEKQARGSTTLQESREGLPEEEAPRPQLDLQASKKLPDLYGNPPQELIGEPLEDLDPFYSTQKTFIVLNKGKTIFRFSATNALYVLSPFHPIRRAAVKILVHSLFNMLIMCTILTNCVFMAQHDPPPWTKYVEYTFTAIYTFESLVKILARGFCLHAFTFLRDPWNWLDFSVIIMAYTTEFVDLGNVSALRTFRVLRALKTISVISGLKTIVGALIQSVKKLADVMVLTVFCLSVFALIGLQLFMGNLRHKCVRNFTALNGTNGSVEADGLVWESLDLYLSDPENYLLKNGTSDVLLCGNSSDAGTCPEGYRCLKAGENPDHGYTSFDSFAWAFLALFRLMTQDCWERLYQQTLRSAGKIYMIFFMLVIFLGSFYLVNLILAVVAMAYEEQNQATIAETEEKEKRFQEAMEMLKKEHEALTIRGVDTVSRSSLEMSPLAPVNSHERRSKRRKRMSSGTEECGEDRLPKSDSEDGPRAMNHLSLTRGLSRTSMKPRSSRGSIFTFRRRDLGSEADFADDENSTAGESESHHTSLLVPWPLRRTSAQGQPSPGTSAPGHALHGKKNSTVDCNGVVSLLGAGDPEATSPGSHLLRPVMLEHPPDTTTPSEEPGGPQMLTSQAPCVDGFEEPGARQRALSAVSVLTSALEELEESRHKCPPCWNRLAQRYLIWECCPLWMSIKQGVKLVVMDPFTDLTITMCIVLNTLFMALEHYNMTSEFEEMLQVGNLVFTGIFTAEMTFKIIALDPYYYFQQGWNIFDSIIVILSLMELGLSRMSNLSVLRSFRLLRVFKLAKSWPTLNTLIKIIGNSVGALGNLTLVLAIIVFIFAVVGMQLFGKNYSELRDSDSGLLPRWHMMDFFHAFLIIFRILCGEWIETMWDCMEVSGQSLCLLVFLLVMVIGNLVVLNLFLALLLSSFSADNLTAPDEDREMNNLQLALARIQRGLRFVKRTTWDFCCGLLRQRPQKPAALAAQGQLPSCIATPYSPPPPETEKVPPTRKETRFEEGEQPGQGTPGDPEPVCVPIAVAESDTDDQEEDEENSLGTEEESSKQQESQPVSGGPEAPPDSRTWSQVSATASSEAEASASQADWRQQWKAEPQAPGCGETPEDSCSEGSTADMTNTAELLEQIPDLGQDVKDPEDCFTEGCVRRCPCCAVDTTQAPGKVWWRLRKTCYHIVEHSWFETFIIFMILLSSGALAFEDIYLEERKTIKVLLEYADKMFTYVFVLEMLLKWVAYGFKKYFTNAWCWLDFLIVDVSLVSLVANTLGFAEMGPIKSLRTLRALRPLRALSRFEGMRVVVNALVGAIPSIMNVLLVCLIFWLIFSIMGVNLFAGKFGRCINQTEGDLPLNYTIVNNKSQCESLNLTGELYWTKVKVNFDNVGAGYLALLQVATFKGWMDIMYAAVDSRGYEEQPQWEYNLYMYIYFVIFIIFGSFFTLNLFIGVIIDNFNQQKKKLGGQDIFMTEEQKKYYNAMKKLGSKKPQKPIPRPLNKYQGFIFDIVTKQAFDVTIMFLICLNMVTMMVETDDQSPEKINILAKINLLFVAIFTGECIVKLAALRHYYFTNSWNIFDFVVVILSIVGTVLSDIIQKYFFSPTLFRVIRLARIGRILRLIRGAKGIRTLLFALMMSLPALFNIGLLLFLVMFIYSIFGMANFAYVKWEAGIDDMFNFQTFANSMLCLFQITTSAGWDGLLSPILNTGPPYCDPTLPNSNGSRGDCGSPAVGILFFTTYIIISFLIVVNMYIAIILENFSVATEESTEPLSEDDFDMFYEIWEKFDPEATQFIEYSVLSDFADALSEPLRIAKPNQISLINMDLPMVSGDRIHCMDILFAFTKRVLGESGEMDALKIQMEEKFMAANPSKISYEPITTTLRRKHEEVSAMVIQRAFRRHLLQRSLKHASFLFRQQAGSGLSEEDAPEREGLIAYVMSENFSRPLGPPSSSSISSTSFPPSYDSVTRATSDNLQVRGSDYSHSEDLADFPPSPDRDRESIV

For orientation: IC50 means the concentration that gives 50% inhibition. Higher therefore signals a need for much substance. With `N#Cc1ccc2c(c1)C[C@@H](NC(=O)c1cc3n(n1)CCC(COCC1CC1)O3)CO2` (mixture of isomers) [Example 102, N—((R)-6-cyanochroman-3-yl)-5-((cyclopropylmethoxy)methyl)-6,7-dihydro-5H-pyrazolo[5,1-b][1,3]oxazine-2-carboxamide], the results for the IC50 against human Nav1.7 and against human Nav1.5 (setting [1]) were less than 1 µM and not below 3 µM, respectively.

As to `N#Cc1ccc2c(c1)C[C@@H](NC(=O)c1cc3n(n1)CCC(COCC(F)(F)F)O3)CO2` (mixture of isomers) [Example 114, N—((R)-6-cyanochroman-3-yl)-5-((2,2,2-trifluoroethoxy)methyl)-6,7-dihydro-5H-pyrazolo[5,1-b][1,3]oxazine-2-carboxamide], the half-inhibitory concentration (IC50) at human Nav1.7 was less than 10 µM; on human Nav1.5 (setting [1]), not below 3 µM.

Take `O=C(N[C@H]1COc2ccc(COCC(F)(F)F)cc2C1)c1cc2n(n1)CCC(COCC(F)(F)F)O2` (mixture of isomers) [Example 128, 5-((2,2,2-trifluoroethoxy)methyl)-N—((R)-6-((2,2,2-trifluoroethoxy)methyl)chroman-3-yl)-6,7-dihydro-5H-pyrazolo[5,1-b][1,3]oxazine-2-carboxamide]: the figures for the IC50 against human Nav1.7 and against human Nav1.5 (setting [1]) were less than 1 µM and 1 to 3 µM, respectively.

In the case of `N#Cc1ccc2c(c1)C[C@@H](NC(=O)c1cc3n(n1)CCC(COC(F)(F)F)O3)CO2` (mixture of isomers) [Example 133, N—((R)-6-cyanochroman-3-yl)-5-((trifluoromethoxy)methyl)-6,7-dihydro-5H-pyrazolo[5,1-b][1,3]oxazine-2-carboxamide], the IC50 against human Nav1.7 was less than 1 µM; on human Nav1.5 (setting [1]), 1 to 3 µM.

As to `CCCC1CCn2nc(C(=O)N[C@H]3COc4ccc(C#N)cc4C3)cc2O1` (single isomer, unassigned) [95 (isomer B)], the 50% inhibitory concentration (IC50) on human Nav1.5 (setting [1]) was not below 3 µM.

Compound `N#Cc1ccc2c(c1)C[C@@H](NC(=O)c1cc3n(n1)CCC(CC1CC1)O3)CO2` (single isomer, unassigned) [97 (isomer B)] gave an IC50 on human Nav1.5 (setting [1]) not below 3 µM.

For `O=C(N[C@H]1COc2ccc(-c3ccccn3)cc2C1)c1cc2n(n1)CCC(COCC1CC1)O2` (single isomer, unassigned) [111 (isomer B)], on human Nav1.5 (setting [1]), the half-maximal inhibitory concentration (IC50) lay in the range of 1 to 3 µM.

With `O=C(N[C@H]1COc2ccc(CC(F)F)cc2C1)c1cc2n(n1)CCC(COCC(F)(F)F)O2` (single isomer, unassigned) [127 (isomer B)], on human Nav1.5 (setting [1]), the concentration for half-maximal inhibition (IC50) is not below 3 µM.

With `O=C(N[C@H]1COc2ccc(CC(F)F)cc2C1)c1cc2n(n1)CCC(CCOC(F)F)O2` (single isomer, unassigned) [148 (isomer B)], the IC50 against human Nav1.5 (setting [2]) was not below 3 µM.

The compound `O=C(N[C@H]1COc2ccc(COCC(F)(F)F)cc2C1)c1cc2n(n1)CCC(CCOC(F)F)O2` (single isomer, unassigned) [150 (isomer B)] yielded a half-inhibitory concentration (IC50) against human Nav1.5 (setting [2]) of 1 to 3 µM.

On human Nav1.5 (setting [2]), `O=C(N[C@H]1COc2ccc(Cl)cc2C1)c1cc2n(n1)CCC(CNCC(F)(F)F)O2` (single isomer, unassigned) [152 (isomer B)] displayed a half-inhibitory concentration (IC50) not below 3 µM.

`Cn1ccc(-c2ccc3c(c2)C[C@@H](NC(=O)c2cc4n(n2)CC(CCOCC(F)(F)F)O4)CO3)n1` (single isomer, unassigned) [206 (isomer B)] returned an IC50 on human Nav1.5 (setting [2]) not below 3 µM.

Regarding `O=C(N[C@H]1COc2ccc(CC(F)F)cc2C1)c1cc2n(n1)CC(CCOC(F)(F)F)O2` (single isomer, unassigned) [211 (isomer B)], the IC50 on human Nav1.5 (setting [2]) was less than 1 µM.

The compound `N#Cc1ccc2c(c1)C[C@@H](NC(=O)c1cc3n(n1)CC(CCCOC(F)(F)F)O3)CO2` (single isomer, unassigned) [247 (isomer B)] yielded an IC50 on human Nav1.5 (setting [2]) of 1 to 3 µM.

With `O=C(N[C@H]1COc2ccc(C(F)(F)F)cc2C1)c1cc2n(n1)CCC(OCC(F)(F)F)CO2` (single isomer, unassigned) [257 (isomer B)], the IC50 on human Nav1.5 (setting [2]) was not below 3 µM.

Compound `O=C(N[C@H]1COc2ccc(COCC(F)(F)F)cc2C1)c1cc2n(n1)CC(CC1CCOCC1)O2` (single isomer, unassigned) [622 (isomer B)] gave a 50% inhibitory concentration (IC50) at human Nav1.5 (setting [2]) not below 3 µM.

`O=C(N[C@H]1COc2ccc(Br)cc2C1)c1cc2n(n1)CC(C(F)(F)F)O2` (stereo partly drawn) [Example 445] gave an IC50 against human Nav1.5 (setting [2]) not below 3 µM.
